Results taken from ChEMBL document CHEMBL4002629, “Design, synthesis and biological evaluation of novel 3-substituted 4-anilino-coumarin derivatives as antitumor agents” (Bioorg Med Chem Lett, 2017).

Legend:
Format in all cases: functional, cell-based
MCF7 = assay: Antiproliferative activity against human MCF7 cells after 48 hrs by MTT assay; conditions: MCF7, 48 h
PANC-1 = assay: Antiproliferative activity against human PANC1 cells after 48 hrs by MTT assay; conditions: PANC-1, 48 h
HCT-116 = assay: Antiproliferative activity against human HCT116 cells after 48 hrs by MTT assay; conditions: HCT-116, 48 h
HepG2 = assay: Antiproliferative activity against human HepG2 cells after 48 hrs by MTT assay; conditions: HepG2, 48 h

| Compound | IC50 (MCF7) | IC50 (PANC-1) | IC50 (HCT-116) | IC50 (HepG2) |
| --- | --- | --- | --- | --- |
| COc1ccc(Nc2c(-c3ccc(OC)cc3)c(=O)oc3ccccc23)cc1 | 34.6 µM | 37.5 µM | 36.6 µM | 35.2 µM |
| COc1ccc(-c2c(Nc3ccc(F)cc3)c3ccccc3oc2=O)cc1 | 38.5 µM | 32 µM | 39.4 µM | 35.5 µM |
| CCOc1ccc(Nc2c(-c3ccc(OC)cc3)c(=O)oc3cc(O)ccc23)cc1 | 32.5 µM | 43.6 µM | 46.1 µM | 36.5 µM |
| COc1ccc(Nc2c(-c3ccc(OC)cc3)c(=O)oc3cc(OC)ccc23)cc1 | 39.2 µM | 41 µM | 35.1 µM | 39.6 µM |
| COc1ccc(-c2c(Nc3ccc(NC(C)=O)cc3)c3ccc(O)cc3oc2=O)cc1 | > 100 µM |  |  | > 100 µM |
| COc1ccc(Nc2c(C(=O)C(F)(F)F)c(=O)oc3cc(OC)ccc23)cc1 | 55.7 µM | 47.5 µM | 61.2 µM | 38.4 µM |
| COc1ccc(-c2c(Nc3ccc(C)cc3)c3ccc(OC)cc3oc2=O)cc1 | 66.9 µM | 76.5 µM | 82.4 µM | 74.4 µM |
| COc1ccc(-c2c(Nc3ccc(C)c(O)c3)c3ccc(O)cc3oc2=O)cc1 | > 100 µM |  |  | > 75.3 µM |
| CCOc1ccc(Nc2c(-c3ccc(OC)cc3)c(=O)oc3cc(OC)ccc23)cc1 | 24.3 µM | 36.1 µM | 33 µM | 31.2 µM |
| COc1ccc2c(Nc3ccc(F)cc3)c(C(=O)C(F)(F)F)c(=O)oc2c1 | 9.74 µM | 12.2 µM | 11.7 µM | 8.26 µM |
| COc1ccc2oc(=O)c(C(=O)C(F)(F)F)c(Nc3ccc(F)cc3)c2c1 | > 100 µM |  |  | > 100 µM |
| COc1ccc(-c2c(Nc3cc(OC)c(OC)c(OC)c3)c3ccccc3oc2=O)cc1 | 82.3 µM | 77.6 µM | 63.5 µM | 77.3 µM |
| COc1ccc(Nc2c(C(=O)C(F)(F)F)c(=O)oc3ccc(OC)cc23)cc1 | > 100 µM |  |  | > 100 µM |
| COc1ccc(-c2c(Nc3ccc(C)c(O)c3)c3ccccc3oc2=O)cc1 | 12.1 µM | 9.75 µM | 12.3 µM | 10.2 µM |
| O=c1[nH]cc(F)c(=O)[nH]1 [FLUOROURACIL] |  | 47.8 µM | 38.3 µM |  |
| COc1ccc(-c2c(Nc3ccc(F)cc3)c3ccc(OC)cc3oc2=O)cc1 | > 100 µM |  |  | > 100 µM |
| COc1ccc(-c2c(Nc3ccc(C)c(O)c3)c3ccc(OC)cc3oc2=O)cc1 | 34.4 µM | 31.3 µM | 26.5 µM | 22.5 µM |
| COc1ccc(-c2c(Nc3cccc(C(F)(F)F)c3)c3ccc(O)cc3oc2=O)cc1 | 49.1 µM | 67.2 µM | 55.9 µM | 53.6 µM |
| COc1ccc(-c2c(Nc3cc(OC)c(OC)c(OC)c3)c3ccc(OC)cc3oc2=O)cc1 | 89.5 µM |  |  | 84.3 µM |
